# According to patent US11690810B2, “Combination treatment of bacterial infection” (The Chinese University of Hong Kong, priority 2018, dated 2023):
# Like-named read-outs stand apart in the source and are kept apart here.
# Columns and labels:
# MRSA SA-ST239 = test: MIC and checkerboard (FIC) assay; settings: for MIC99: read-out: MIC 99.9
# [1] = test system: internalization of MRSA strain JE-2 by HaCat keratinocytes; test: Internalization of S. aureus by HaCaT keratinocytes; assay type: cell-based, Staphylococcus aureus
# [2] = test system: bacterial aggregation of MRSA JE-2; test: Aggregation assay of MRSA JE-2; assay type: cell-based, Staphylococcus aureus; settings: kuraridin at 4 μg/ml
# [3] = test system: S. aureus SA-APH3′ (APH3), resistant to kanamycin; test: MIC and checkerboard (FIC) assay; settings: for MIC99: read-out: MIC 99.9
# [4] = test system: cytokines production of human macrophages stimulated with PGN or SEB; assay type: cell-based
# panel of MRSA strains = settings: previous study (12); cited from earlier work
# [5] = test system: S. aureus SA-RN4220-pUL5054 (RN4220); test: MIC and checkerboard (FIC) assay; settings: for MIC90 / MIC / MIC99: Staphylococcus aureus; for MIC99: read-out: MIC 99.9
# [6] = test system: human peripheral blood mononuclear cells (PBMC); test: XTT cytotoxicity testing; assay type: cell-based; settings: 2-64 μg/ml, vs drug free control
# Description: (§1) The plates were maintained in a 37° C. incubator.
# The cytotoxicity of kuraridin and its analogues were determined by the sodium 3′-[1-(phenylaminocarbonyl)-3,4-tetrazolium]-bis (4-methoxy-6-nitro) benzene sulfonic acid hydrate (XTT) assay.
# Serial dilutions of the compounds ranging 2-64 μg/ml were incubated with PBMCs at 37° C. for 72 hrs.
# [7] = test system: Human Mammary Epithelial Cell (HMEC); test: XTT cytotoxicity testing; assay type: cell-based; settings: 2-64 μg/ml, vs drug free control
# Description: as §1
# [8] = test system: S. aureus SA-ANT4′ (ANT4), resistant to fusidic acid; test: MIC and checkerboard (FIC) assay; settings: for MIC99: read-out: MIC 99.9
# [9] = test system: S. aureus SA-1199B (NorA efflux pump overexpressed); test: MIC and checkerboard (FIC) assay; settings: for MIC99: read-out: MIC 99.9
# clinical MRSA ST239 = test: Mouse pneumonia model, ST239 (neutropenic mice); assay type: in vivo, Balb/c mice
# [10] = test system: S. aureus ATCC25923 (methicillin sensitive); test: MIC and checkerboard (FIC) assay; settings: Staphylococcus aureus; for MIC90: ATCC25923; for MIC99: ATCC25923, read-out: MIC 99.9
# [11] = test system: adherence of MRSA strain JE-2 to HaCat keratinocytes; test: Bacterial adherence to HaCaT keratinocytes; assay type: cell-based, Staphylococcus aureus
# [12] = test system: adherence of MRSA strain JE-2 to fibrinogen; test: Fibrinogen-binding adherence assay (crystal violet); assay type: cell-based, Staphylococcus aureus; settings: kuraridin at 1.0 μg/ml
# [13] = test system: cytokines production of human PBMC stimulated with PGN or SEB; assay type: cell-based
# [14] = test system: Panton-Valentine leukocidin positive CA-MRSA strain ST30; assay type: in vivo, Balb/c mice
# [15] = test system: Human Umbilical Vein Endothelial Cells (HUVEC); test: XTT cytotoxicity testing; settings: 2-64 μg/ml, vs drug free control
# [16] = test system: panel of laboratory MRSA strains; test: MIC and combination tests, panel of laboratory strains
# [17] = test system: clinical community-associated (CA) and hospital-associated (HA) MRSA strains; test: MIC and combination tests, panel of clinical strains
# [18] = test system: S. aureus SA-APH2″-AAC6′ (APH2), resistant to gentamicin; test: MIC and checkerboard (FIC) assay; settings: for MIC99: read-out: MIC 99.9
# Solubility = settings: MIC test medium
# HA MRSA W233 = test: MIC and checkerboard (FIC) assay
# CA MRSA W47 = test: MIC and checkerboard (FIC) assay
# HA MRSA W232 = test: MIC and checkerboard (FIC) assay
# HA MRSA W231 = test: MIC and checkerboard (FIC) assay
# CA MRSA W48 = test: MIC and checkerboard (FIC) assay
# HA MRSA W238 = test: MIC and checkerboard (FIC) assay
# HA MRSA W239 = test: MIC and checkerboard (FIC) assay
# CA-MRSA strain ST30 = test: MIC and checkerboard (FIC) assay; assay type: cell-based, Staphylococcus aureus
# CA MRSA W44 = test: MIC and checkerboard (FIC) assay
# [19] = test system: methicillin sensitive Staphylococcus aureus ATCC25923; test: Mouse pneumonia model, ATCC25923 (neutropenic mice); assay type: in vivo, Balb/c mice
# CA MRSA W46 = test: MIC and checkerboard (FIC) assay
# CA MRSA W45 = test: MIC and checkerboard (FIC) assay
# [20] = Staphylococcus aureus, read-out: MIC alone
# [21] = Staphylococcus aureus, MRSA, read-out: MIC alone
smiles,measurement,setting,value
C=C(C)C(CC=C(C)C)Cc1c(O)cc(OC)c(C(=O)/C=C/c2ccc(O)cc2O)c1O (stereo not shown) [Kuraridin],MIC90,"MRSA SA-ST239; Staphylococcus aureus, MRSA",8 µg/mL
same,MIC99,"MRSA SA-ST239; Staphylococcus aureus, MRSA",8 µg/mL
same,percentage of internalized bacteria by HaCaT cells,[1]; kuraridin 0.25 μg/ml,23.8±4.6%
same,percentage of internalized bacteria by HaCaT cells,[1]; kuraridin 0.5 μg/ml,15.8±2.0%
same,aggregation lower than the mutant ΔSrtA,[2],3.7 folds
same,reduction in bacterial aggregation as compared to the wild type without drug,[2],4.4 fold
same,FIC,"[3]; APH3, Kuraridin with ECG",0.25
same,MIC combine,"[3]; APH3, Kuraridin with ECG",2 µg/mL
same,MIC90,[3]; Staphylococcus aureus,8 µg/mL
same,MIC99,[3]; Staphylococcus aureus,8 µg/mL
same,MIC,[3]; [20],8 µg/mL
same,IFN-γ productions,[4],could suppress
same,IL-6 and IL-12 production,[4],dose-dependently inhibited
same,TNF-α production,[4],suppressed
same,minimum inhibitory concentration (MIC),panel of MRSA strains,around 8 μg/ml
same,FIC,"[5]; RN4220, Kuraridin with ECG",0.25
same,MIC combine,"[5]; RN4220, Kuraridin with ECG",2 µg/mL
same,MIC90,[5],8 µg/mL
same,MIC,"[5]; read-out: Activity (MIC, μg/ml)",8 µg/mL
same,MIC99,[5],8 µg/mL
same,MIC,[5]; read-out: MIC alone,8 µg/mL
same,Cellular toxicity (XTT assay),[6],not toxic
same,Cellular toxicity (XTT assay),[7],not toxic
same,FIC,"[8]; ANT4, Kuraridin with ECG",0.25
same,MIC combine,"[8]; ANT4, Kuraridin with ECG",2 µg/mL
same,MIC90,[8]; Staphylococcus aureus,4 µg/mL
same,MIC99,[8]; Staphylococcus aureus,8 µg/mL
same,MIC,[8]; [20],8 µg/mL
same,FIC,"[9]; 1199B, Kuraridin with ECG",0.25
same,MIC combine,"[9]; 1199B, Kuraridin with ECG",4 µg/mL
same,MIC90,[9]; Staphylococcus aureus,16 µg/mL
same,MIC99,[9]; Staphylococcus aureus,16 µg/mL
same,MIC,"[9]; Staphylococcus aureus, read-out: MIC alone, 1199B, Kuraridin and ECG section",16 µg/mL
same,mice died,"clinical MRSA ST239; ST239, 48 h, 1 also died in control",1 mouse
same,MIC90,[10],8 µg/mL
same,MIC99,[10],8 µg/mL
same,adherence of WT strain to HaCaT cells,[11]; 2 μg/ml kuraridin (0.25×MIC),abolished
same,percentage of adherence of the bacteria,[11]; kuraridin 0.25 μg/ml,28.4±3.2%
same,percentage of adherence of the bacteria,[11]; kuraridin 0.5 μg/ml,17.8±11.1%
same,percentage of adherence of the bacteria,[11]; kuraridin 1 μg/ml,7.6±3.7%
same,solubility,physchem; aqueous with cosolvent or surfactant or cyclodextrin,20 mg/mL
same,reduction in the adherence of the WT strain to fibrinogen,[12],100%
same,IL-10 and IL-12 production,[13],dose-dependently inhibited
same,log CFU counts (left lung),"[14]; ST30, kuraridin 120 mg/kg, ECG 120 mg/kg, 48 h, control 9.24±0.15",8.25±0.39 log CFU
same,survival rates,"[14]; ST30, kuraridin 120 mg/kg, ECG 120 mg/kg, control 30%",50%
same,log CFU counts and survival rates,"[14]; ST30, used alone at 60 and 120 mg/kg",could not reduce the log CFU counts or improve the survival rates
same,Cellular toxicity (XTT assay),[15],not toxic
same,MIC99,"[16]; Staphylococcus aureus, MRSA",8 to 16 µg/mL
same,MICs in kuraridin and ECG combined treatment,[16]; range over laboratory strains (Table 2),2 to 4 µg/mL
same,MICs in kuraridin and ECG combined treatment,[17]; range over clinical CA and HA MRSA strains (Table 3),1 to 4 µg/mL
same,FIC,"[18]; APH2, Kuraridin with ECG",0.25
same,MIC combine,"[18]; APH2, Kuraridin with ECG",2 µg/mL
same,MIC90,[18]; Staphylococcus aureus,8 µg/mL
same,MIC99,[18]; Staphylococcus aureus,8 µg/mL
same,MIC,[18]; [20],8 µg/mL
"Cc1coc2c1C(=O)C(=O)c1c-2ccc2c(C)cccc12 [Tanshinone, tanshinone]",MIC90,"MRSA SA-ST239; Staphylococcus aureus, MRSA",> 128 µg/mL
same,MIC99,"MRSA SA-ST239; Staphylococcus aureus, MRSA",> 128 µg/mL
same,MIC90,[3]; Staphylococcus aureus,> 128 µg/mL
same,MIC99,[3]; Staphylococcus aureus,> 128 µg/mL
same,MIC90,[5],> 128 µg/mL
same,MIC99,[5],> 128 µg/mL
same,MIC90,[8]; Staphylococcus aureus,> 128 µg/mL
same,MIC99,[8]; Staphylococcus aureus,> 128 µg/mL
same,MIC90,[9]; Staphylococcus aureus,> 128 µg/mL
same,MIC99,[9]; Staphylococcus aureus,> 128 µg/mL
same,MIC90,[10],> 128 µg/mL
same,MIC99,[10],> 128 µg/mL
same,solubility,Solubility,poor
same,activity against the tested MRSA strains when used alone,[16]; tanshinone highest tested concentration 128 μg/ml,ineffective
same,MIC90,[18]; Staphylococcus aureus,> 128 µg/mL
same,MIC99,[18]; Staphylococcus aureus,> 128 µg/mL
"CN[C@H](CC(C)C)C(=O)N[C@H]1C(=O)N[C@@H](CC(N)=O)C(=O)N[C@H]2C(=O)N[C@H]3C(=O)N[C@H](C(=O)N[C@H](C(=O)O)c4cc(O)cc(O)c4-c4cc3ccc4O)[C@H](O)c3ccc(c(Cl)c3)Oc3cc2cc(c3O[C@@H]2O[C@H](CO)[C@@H](O)[C@H](O)[C@H]2O[C@H]2C[C@](C)(N)[C@H](O)[C@H](C)O2)Oc2ccc(cc2Cl)[C@H]1O [Vancomycin, vancomycin, reference compound]",FIC,"MRSA SA-ST239; ST239, ECG+Kur+Van",0.5
same,MIC combine,"MRSA SA-ST239; ST239, ECG+Kur+Van",0.5 µg/mL
same,MIC,MRSA SA-ST239; [21],1 µg/mL
same,MIC,HA MRSA W233; [21],1 µg/mL
same,FIC,"HA MRSA W233; W233, ECG+Kur+Van",0.5
same,MIC combine,"HA MRSA W233; W233, ECG+Kur+Van",0.5 µg/mL
same,MIC,CA MRSA W47; [21],1 µg/mL
same,FIC,"CA MRSA W47; W47, ECG+Kur+Van",0.25
same,MIC combine,"CA MRSA W47; W47, ECG+Kur+Van",0.25 µg/mL
same,MIC,HA MRSA W232; [21],1 µg/mL
same,FIC,"HA MRSA W232; W232, ECG+Kur+Van",0.5
same,MIC combine,"HA MRSA W232; W232, ECG+Kur+Van",0.5 µg/mL
same,MIC,HA MRSA W231; [21],1 µg/mL
same,MIC combine,"HA MRSA W231; W231, ECG+Kur+Van",0.5 µg/mL
same,MIC,CA MRSA W48; [21],1 µg/mL
same,FIC,"CA MRSA W48; W48, ECG+Kur+Van",0.5
same,MIC combine,"CA MRSA W48; W48, ECG+Kur+Van",0.5 µg/mL
same,MIC,HA MRSA W238; [21],1 µg/mL
same,FIC,"HA MRSA W238; W238, ECG+Kur+Van",0.5
same,MIC combine,"HA MRSA W238; W238, ECG+Kur+Van",0.5 µg/mL
same,mean bacteria counts (left lung),"clinical MRSA ST239; mouse, in vivo",4.73±0.26 log CFU
same,MIC,HA MRSA W239; [21],1 µg/mL
same,FIC,"HA MRSA W239; W239, ECG+Kur+Van",0.5
same,MIC combine,"HA MRSA W239; W239, ECG+Kur+Van",0.5 µg/mL
same,FIC,"CA-MRSA strain ST30; ST30, ECG+Kur+Van",0.5
same,MIC combine,"CA-MRSA strain ST30; ST30, ECG+Kur+Van",0.5 µg/mL
same,MIC,CA-MRSA strain ST30; [21],1 µg/mL
same,solubility,physchem; saline or isotonic,20 mg/mL
same,MIC,CA MRSA W44; [21],1 µg/mL
same,FIC,"CA MRSA W44; W44, ECG+Kur+Van",0.5
same,MIC combine,"CA MRSA W44; W44, ECG+Kur+Van",0.5 µg/mL
same,lung tissue profiles (histology) vs control,[19],fewer lesions
same,mean bacteria counts (left lung),"[19]; vancomycin 60 mg/kg, ECG 120 mg/kg, kuraridin 120 mg/kg, 48 h, control 8.909±0.101",6.064±0.425 log CFU
same,MIC,CA MRSA W46; [21],1 µg/mL
same,FIC,"CA MRSA W46; W46, ECG+Kur+Van",0.5
same,MIC combine,"CA MRSA W46; W46, ECG+Kur+Van",0.5 µg/mL
same,MIC,CA MRSA W45; [21],1 µg/mL
same,FIC,"CA MRSA W45; W45, ECG+Kur+Van",0.5
same,MIC combine,"CA MRSA W45; W45, ECG+Kur+Van",0.5 µg/mL
same,"expression levels of TNFα, IL-1β, and IL-6 from lung homogenates","[14]; mouse, in vivo",significantly lowered
same,lung tissue profiles (histology) vs control,"[14]; mouse, in vivo",fewer lesions
same,survival rate,"[14]; mouse, in vivo",100%
same,MIC,"[17]; Staphylococcus aureus, MRSA, read-out: MIC of vancomycin alone",1 µg/mL
same,MIC of vancomycin with ECG and kuraridin combined treatment,[17]; panel of clinical strains (Table 5),0.5 µg/mL
